According to EP1656183B1, “TREATMENT OF MALE SEXUAL DYSFUNCTION” (Pfizer Limited, priority 2003, dated 2005):
Like-named read-outs stand apart in the source and are kept apart here.

Experiments:
anaesthetised rats = experiment: p-chloroamphetamine (PCA)-induced ejaculation and penile erection in anaesthetised rats; format: in vivo, Male Sprague Dawley rats; conditions: for delay of p-chloroamphetamine (PCA)-induced ejaculation: vasopressin selective doses, plasma concentration of 9-31 nM; for Penile Cups / Penile Flares: % of PCA-induced erections
Procedure: In order to study penile erection and ejaculation the method used was based on the methodology taught in Yonezawa et al (2000) Life Sciences 67, 3031-3039. For ease of reference, this methodology is described below:
Male Sprague Dawley rats, weighing 350-450 g, are used. Prior to the experiments the animals are housed in groups (2 rats per cage) under controlled 12 h light-dark cycle (lights on at 07:00), constant temperature (23±1°C) and humidity (55±5%). They have free access to standard food pellets and water.
Rats are anesthestised with sodium pentobarbitone (50mg/kg, i.p.) and are placed in the supine position. The penis is extruded from its sheath and gently held by a wooden applicator positioned at the base of the penis. The test compounds are administered by intravenous infusion and p-chloroamphetamine (PCA) (5-10mg/kg) is administered i.p. immediately before the sheath retraction and the penile responses, including penile erection, redding and expansion of the penile body, glans erection, engorgement and slight flaring of the glans and cup, glans erection with Intense flaring of the glans, are recorded. Latencies from PCA administration to the initial penile response and ejaculation is also measured In seconds. […]

human V1A receptor = target: T1, human V1A receptor (Homo sapiens, UniProt P37288); experiment: Ligand binding assay, [3H]-AVP binding to CHO-hV1A membranes
T1 construct: expressed in transfected cells; host or cells: CHO (CHO-hV1A cell line provided by Marc Thibonnier, Case Western Reserve University)
Procedure: Receptor binding assays were performed on cellular membranes prepared from CHO cells stably expressing the human V1A receptor, (CHO-hV1A). […] CHO-hV1A cells were routinely maintained at 37°C In humidified atmosphere with 5% CO2 in DMEM/Hams F12 nutrient mix supplemented with 10 % fetal bovine serum, 2 mM L-glutamine, 15 mM HEPES and 400 µg/ml G418. For bulk production of cell pellets, adherent CHO-hV1A cells were grown to confluency of 90-100% in 850 cm^2 roller bottles containing a medium of DMEM/Hams F12 Nutrient Mix supplemented with 10 % fetal bovine serum, 2 mM L-glutamine and 15 mM HEPES. Confluent CHO-hV1A cells were washed with phosphate-buffered saline (PBS), harvested into ice cold PBS and centrifuged at 1,000 rpm. Cell pellets were stored at -80°C until use. Cell pellets were thawed on ice and homogenised in membrane preparation buffer consisting of 50 mM Tris-HCI, pH 7.4, 5 mM MgCl2 and supplemented with a protease inhibitor cocktail, (Roche). The cell homogenate was centrifuged at 1000 rpm, 10 min, 4°C and the supernatant was removed and stored on ice. The remaining pellet was homogenised and centrifuged as before. The supernatants were pooled and centrifuged at 25,000 x g for 30 min at 4°C. The pellet was resuspended in freezing buffer consisting of 50 mM Tris-HCI, pH 7.4, 5 mM MgCl2 and 20 % glycerol and stored in small aliquots at -80°C until use. Protein concentration was determined using Bradford reagent and BSA as a standard.
Protein linearity followed by saturation binding studies were performed on each new batch of membrane. A membrane concentration was chosen that gave specific binding on the linear portion of the curve. […]
Compounds were tested for their effects on [^3H]-AVP binding to CHO-hV1A membranes, (^3H-AVP; specific activity 65.5 Ci/mmol; NEN Life Sciences). […] The plates were sealed and counted on a TopCount Microplate Scintillation Counter (Packard Instruments). Non-specific binding (NSB) was determined using 1 µM unlabelled d(CH2)5Tyr(Me)AVP ([β-mercapto-β,β-cyclopentamethylene-propionyl,0-Me-Tyr^2,Arg^8]-vasopressin) (βMCPVP), (Sigma). The radioligand binding data was analysed using a four parameter logistic equation with the min forced to 0%. […] Specific binding was calculated by subtracting the mean NSB cpm from the mean Total cpm. For test compounds the amount of ligand bound to the receptor was expressed as % bound = (sample cpm - mean NSB cpm)/specific binding cpm x100. […] The Inhibitory dissociation constant (Ki) was calculated using the Cheng-Prusoff equation: Ki=IC50/(1+[L]/Kd) where [L] is the concentration of ligand present in the well and Kd is the dissociation constant of the radioligand obtained from Scatchard plot analysis.

human Oxytocin receptor = target: T2, human Oxytocin receptor (Homo sapiens, UniProt P30559); experiment: Oxytocin receptor binding assay (125I-OVT, SPA)
T2 construct: expressed in transfected cells; host or cells: CHO
T2 sequence (P30559 1-389): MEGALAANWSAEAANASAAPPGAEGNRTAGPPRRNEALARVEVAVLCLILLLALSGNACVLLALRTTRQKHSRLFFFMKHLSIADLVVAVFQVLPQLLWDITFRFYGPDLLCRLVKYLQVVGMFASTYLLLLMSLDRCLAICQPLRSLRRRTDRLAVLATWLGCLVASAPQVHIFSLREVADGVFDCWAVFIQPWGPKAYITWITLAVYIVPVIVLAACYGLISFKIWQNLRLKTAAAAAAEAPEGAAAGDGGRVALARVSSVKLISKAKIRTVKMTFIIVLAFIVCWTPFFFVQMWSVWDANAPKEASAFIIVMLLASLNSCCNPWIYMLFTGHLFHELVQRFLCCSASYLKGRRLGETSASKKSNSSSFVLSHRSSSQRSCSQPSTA
Procedure: As an example for a selectivity assay, an oxytocin receptor binding assay is described below.
CHO-cells engineered to express the human Oxytocin receptor are maintained, and membrane preparations from such cells are prepared according to standard techniques (see e.g. Example 2). They are diluted to 1 mg/ml protein concentration in assay buffer (50 mM Tris-HCl, pH7.8; 10 mM Mg Cl2; 0.25% BSA). SPA beads are resuspended at 50 mg/ml in assay buffer. From these concentrations, beads are pre-coupled with membranes by incubating 30 µg of protein per mg of bead on a top-to-tail shaker for 2 hours at 4 °C. The bead/membranes are then centrifuged at 2000 rpm for 10 mins and the pellet is resuspended at 3 mg/ml.
All manipulations of the ^125I-OVT (NEN, NEX254) are carried out using tips that have been silanised using SigmaCote. All bottles and tubes are also silanised. […] A 5 µl sample is then counted in duplicate using liquid scintillation counting (protocol 61 on Wallac Counter) and the concentration of the ligand is calculated. […] Using the measured concentration, the ^125I-OVT is diluted to 0.3 nM in assay buffer.
20 µl of the bead/membrane preparation is added to the prepared Optiplates using the Multi-drop, after the desired dilutions of test compounds are added to the wells. […] Following a 4 hour incubation at room temperature, the plates are counted using the TopCount NXT for 30s/well.

[1] = Plasma concentration in the copulatory behaviour study; format: in vivo; conditions: 0.05mgkg^-1 sc, rats
conscious rats = experiment: Copulatory behaviour in conscious rats (ejaculatory latency); format: in vivo; conditions: 0.05mgkg^-1 sc
Procedure: For all the sexual behavour tests, the male rats were placed in an observation arena (50-60 cm diameter), starting 5 hours into the dark cycle and observed under red ilumination. Three to four minutes after placing the male in the arena, a receptive female (ovariectomised, oestradiol benzoate / progesterone injection 48 hour before behavioural study) was Introduced into the arena and the following parameters noted: • i) ejaculatory latency (EJL; time taken from addition of receptive female into the arena to ejaculation); • ii) copulatory efficiency (CE; ejaculatory latency/ the number of intromissions to ejaculation, i.e. the number of seconds between intromissions); • iii) intromission frequency (IF; the number of intromissions to ejaculation); • iv) mount frequency (MF; the number of mounts to ejaculation); • v) post ejaculatory interval (PEI; the time taken from ejaculation to the commencement of copulatory behaviour).
Rodent copulatory behaviour is characterised by a series of mounts, with and without vaginal insertion (50-80% of mounts result in intromission [vaginal penetration]) and ejaculation occurs after 6 to 12 intromissions. Each intromission lasts a matter of seconds - it is not possible to quantify intromission length i.e. intravaginal latency. The effect of L-371257 was assessed on a number of copulatory parameters (see above). […]

[2] = plasma conc 30.9nM, listed as compound 1

T1 sequence (P37288 whole entry): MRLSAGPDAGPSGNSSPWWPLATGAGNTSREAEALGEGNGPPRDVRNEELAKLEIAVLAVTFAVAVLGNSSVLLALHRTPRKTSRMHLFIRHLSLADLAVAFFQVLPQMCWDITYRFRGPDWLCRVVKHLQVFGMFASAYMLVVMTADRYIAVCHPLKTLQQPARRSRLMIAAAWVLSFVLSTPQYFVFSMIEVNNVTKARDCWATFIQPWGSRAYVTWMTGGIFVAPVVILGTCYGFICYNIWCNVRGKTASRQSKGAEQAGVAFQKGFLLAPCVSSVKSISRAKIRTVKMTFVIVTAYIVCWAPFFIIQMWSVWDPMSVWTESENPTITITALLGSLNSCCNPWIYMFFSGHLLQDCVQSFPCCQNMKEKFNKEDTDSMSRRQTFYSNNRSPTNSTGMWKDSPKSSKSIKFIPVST

## COC1CCN(Cc2nnc(C3CCN(c4ccccn4)CC3)n2Cc2ccccc2)CC1 [Compound 1, 4-[4-Benzyl-5-(4-methoxy-piperldin-1-ylmethyl)-4H-[1,2,4]triazol-3-yl]-3,4,5,6-tetrahydro-2H-[1,2']bipyridinyl]
Anaesthetised rats; anaesthetised rats, PCA-induced
  time taken for the rats to achieve erection: not significantly affected
Anaesthetised rats; anaesthetised rats, free plasma concentrations 30.9nM, near maximal effect
  Ejaculation was delayed: 100%
Anaesthetised rats; anaesthetised rats
  delay of p-chloroamphetamine (PCA)-induced ejaculation: delays ejaculation
Anaesthetised rats; anaesthetised rats, listed as compound 1
  delay of p-chloroamphetamine (PCA)-induced ejaculation: significantly delayed
Anaesthetised rats; at both plasma conc 11.4nM and 30.9nM
  ejaculation and penile erection: * At both of these concentrations Compound 1 delayed ejaculation without affecting penile erection.
Anaesthetised rats; plasma conc 11.4nM
  Penile Cups: 31.6%
  Penile Flares: 81.5%
Anaesthetised rats; plasma conc 30.9nM
  Penile Cups: 57.0%
  Penile Flares: 83.6%
Anaesthetised rats; [2]
  Penile Cups: 57%
  Penile Flares: 84%
Human V1A receptor
  Ki: 0.05 µM
  selective towards vasopressin V1a receptors as compared with oxytocin receptors: more than 60 fold
Human Oxytocin receptor; read-out: oxytocin receptors (OT; Ki OT)
  Ki: 3 µM

## COc1cc(OC2CCN(C(C)=O)CC2)ccc1C(=O)N1CCC(N2C(=O)OCc3ccccc32)CC1 [Compound L-371257, reference compound]
[1]
  Plasma conc: L-371257 0.05mgkg^-1 sc Plasma conc ∼ 30nM
Conscious rats
  other effects on copulatory behaviour: no other significant effects
Conscious rats; P<0.05 versus vehicle
  Increased ejaculatory latency: 67%
Human V1A receptor; as printed: OT vs V1a
  selective towards oxytocin receptors as compared with vasopressin V1a receptors: more than 5 fold
Human V1A receptor; read-out: vasopressin V1a receptors (V1a; Ki V1a)
  Ki: 0.0037 µM
Human Oxytocin receptor; read-out: oxytocin receptors (OT)
  Ki: 0.019 µM
